In patent US4198421A, “Antiinflammatory 2-substituted-dibenzo[2,3:6,7]oxepino[4,5-d]imidazoles” (E. I. Du Pont de Nemours and Company, priority 1978, dated 1980):
Where two headings read alike, the source gives them in different places.

Test system: adjuvant-induced arthritis
Assay: Established Adjuvant-Induced Arthritis in Rats (A.A.)
Type: in vivo, Charles River Lewis male rats
Details: Rattus norvegicus, 168 h, read-out: A. A. ED50%
[1] = ED50% decrease from control paw volume (uninjected, left hind paw), established adjuvant-induced arthritis, oral gavage daily, 7 days, read by visual fit

Compound	ED50 [1] [mg/kg]	ED50 (po) [mg/kg]
Fc1ccc2c(c1)Oc1ccccc1-c1nc(SC(F)(F)C(F)F)[nH]c1-2 [1 (k), 10-Fluoro-2-[(1,1,2,2-tetrafluoroethyl)thio]-1H-dibenzo[2,3:6,7]oxepino[4,5-d]imidazole]	< 27	
O=S(=O)(c1nc2c([nH]1)-c1ccc(F)cc1Oc1ccccc1-2)C(F)(F)C(F)F [Example 2, 10-Fluoro-2-[(1,1,2,2-tetrafluoroethyl)sulfonyl]-1H-dibenzo[2,3:6,7]oxepino[4,5-d]imidazole]	4.5	
CC(C)Cc1ccc(C(C)C(=O)O)cc1 (centres unmarked) [Ibuprofen, ibuprofen]	100	
COc1ccc2c(c1)c(CC(=O)O)c(C)n2C(=O)c1ccc(Cl)cc1 [Indomethacin, indomethacin]		0.3
CCCCC1C(=O)N(c2ccccc2)N(c2ccccc2)C1=O [Phenylbutazone, phenylbutazone]	10	
